This experiment in a line: MIC of test compounds against various organisms. In kind it is cell-based. How it is done: The MIC (μg/ml) of test compounds against various organisms was determined including: S. epidermidis CL7, S. aureus WCUH29, S. pneumoniae 1629, S. pyogenes CN10, H. influenzae ATCC 49247, E. faecalis 2, M. catarrhalis Ravasio, E. coli 7623. Examples 1, 5, 6, 7, 8, 11, 13 have an MIC≦2 μg/ml versus all these organisms.

Where [1] appears, read: versus all these organisms: S. epidermidis CL7, S. aureus WCUH29, S. pneumoniae 1629, S. pyogenes CN10, H. influenzae ATCC 49247, E. faecalis 2, M. catarrhalis Ravasio, E. coli 7623.

The results in this text go back to patent US7498326B2, “Compounds” (Glaxo Group Limited, priority 2002, dated 2009).

Structures can show the parent of a compound that is named as a salt.

Turning to `COc1cnc2cccc(C(O)CN3CCC(NCc4ccc5c(n4)NC(=O)CS5)CC3)c2n1` (racemic) [Example 5, 6-{[(1-{(2R/S)-2-hydroxy-2-[3-(methyloxy)-5-quinoxalinyl]ethyl}-4-piperidinyl)amino]methyl}-2H-pyrido[3,2-b][1,4]thiazin-3(4H)-one dihydrochloride], the MIC under setting [1] was not above 2 µg/mL. Still for that read-out and setting: to `N#Cc1ccc2nccc(CCN3CC[C@H](NCc4ccc5c(n4)NC(=O)CO5)[C@H](O)C3)c2c1` (stereo in doubt) [Example 12, 4-[2-(3-hydroxy-4-{[(3-oxo-3,4-dihydro-2H-pyrido[3,2-b][1,4]oxazin-6-yl)methyl]amino}-1-piperidinyl)ethyl]-6-quinolinecarbonitrile (E1 isomer)] belongs not above 16 µg/mL. The same measure, in the same setting: the result for `N#Cc1ccc2nccc(CCN3CCC(NCc4ccc5c(n4)NC(=O)CO5)CC3)c2c1` [Example 1, 4-2-{4-[(3-Oxo-3,4-dihydro-2H-pyrido[3,2-b][1,4]oxazin-6-ylmethyl)-amino]-piperidin-1-yl}-ethyl)-quinoline-6-carbonitrile dihydrochloride] reads not above 2 µg/mL.

In the case of `O=C1CSc2ccc(CN[C@H]3CCN(CCc4ccnc5ccc6c(c45)OCCO6)C[C@H]3F)nc2N1` [Example 4, 6({(3R,4S)-1-[2-(2,3-Dihydro-[1,4]dioxino[2,3-f]quinolin-10-yl)-ethyl]-3-fluoro-piperidin-4-ylamino}-methyl)-4H-pyrido[3,2-b][1,4]thiazin-3-one], under setting [1], the MIC is not above 16 µg/mL. In the case of `COc1cnc2cccc(C(O)CN3CCC(NCc4cc5c(cn4)OCCO5)CC3)c2n1` (stereo not drawn) [Example 6, (1R/S)-2-{4-[(2,3-dihydro[1,4]dioxino[2,3-c]pyridin-7-ylmethyl)amino]1-1-piperidinyl}-1-[3-(methyloxy)-5-quinoxalinyl]ethanol dihydrochloride], the MIC under setting [1] is not above 2 µg/mL. Still for that read-out and setting: to `Clc1cnc2ccc3c(c2c1CCN1CCC(NCc2cc4c(cn2)OCCO4)CC1)OCCO3` [Example 7, {1-[2-(9-Chloro-2,3-dihydro-[1,4]dioxino[2,3-f]quinolin-10-yl)-ethyl]-piperidin-4-yl}-(2,3-dihydro-[1,4]dioxino[2,3-c]pyridin-7-ylmethyl)-amine dihydrochloride] belongs not above 2 µg/mL; to `COc1ccc2cccc(C(O)CN3CCC(NCc4ccc5c(n4)NC(=O)CO5)CC3)c2n1` (stereo not drawn) [Example 8, 6-{[(1-{2-hydroxy-2-[2-(methyloxy)-8-quinolinyl]ethyl}4-piperidinyl)amino]methyl}-2H-pyrido[3,2-b][1,4]oxazin-3(4H)-one], not above 2 µg/mL. For `O=C1CSc2ccc(CNC3CCN(CCc4ccnc5ccccc45)CC3)nc2N1` [Example 9, 6-[({1-[2-(4-quinolinyl)ethyl]-4-piperidinyl}amino)methyl]-2H-pyrido[3,2-b][1,4]thiazin-3(4H)-one dihydrochloride], the MIC (versus some of these organisms (which of the eight listed strains is not stated)) was not above 16 µg/mL.

In the case of `N#Cc1ccc2nccc(CCN3CC[C@H](NCc4ccc5c(n4)NC(=O)CS5)[C@H](O)C3)c2c1` [Example 11, 4-[2-(3-hydroxy-4-{([(3-oxo-3,4-dihydro-2H-pyrido[3,2-b][1,4]thiazin-6-yl)methyl]amino}-1-piperidinyl)ethyl]-6-quinolinecarbonitriledihydrochloride (E2 isomer)], the MIC under setting [1] is not above 2 µg/mL.
